Measurements: ChEMBL document CHEMBL5678818, “Discovery of potent SOS1 inhibitors that block RAS activation via disruption of the RAS-SOS1 interaction” (Proc Natl Acad Sci U S A, 2019)

What was measured:
[1] = target: T1, Tyrosine-protein kinase ITK/TSK (Homo sapiens) (UniProt Q08881); test: Inhibition of ITK (unknown origin) assessed as residual activity at 1000 nM by KINOMEscan analysis relative to control
T1 sequence (whole entry): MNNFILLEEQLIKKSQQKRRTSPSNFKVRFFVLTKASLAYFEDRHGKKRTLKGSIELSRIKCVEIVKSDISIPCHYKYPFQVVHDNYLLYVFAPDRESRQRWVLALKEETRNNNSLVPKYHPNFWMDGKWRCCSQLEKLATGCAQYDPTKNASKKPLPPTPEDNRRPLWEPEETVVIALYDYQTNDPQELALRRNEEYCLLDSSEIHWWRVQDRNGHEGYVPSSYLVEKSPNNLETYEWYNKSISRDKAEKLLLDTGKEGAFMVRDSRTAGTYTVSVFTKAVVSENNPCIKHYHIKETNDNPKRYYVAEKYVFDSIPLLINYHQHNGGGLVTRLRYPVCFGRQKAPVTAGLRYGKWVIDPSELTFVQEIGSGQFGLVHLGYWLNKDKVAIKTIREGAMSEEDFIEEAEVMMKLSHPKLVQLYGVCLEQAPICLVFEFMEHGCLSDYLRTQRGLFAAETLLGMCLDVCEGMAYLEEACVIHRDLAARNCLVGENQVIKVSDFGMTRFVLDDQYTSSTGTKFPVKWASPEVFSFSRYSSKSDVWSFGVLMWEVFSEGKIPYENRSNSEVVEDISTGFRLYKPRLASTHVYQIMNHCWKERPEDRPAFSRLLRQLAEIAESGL

[2] = target: Serine/threonine-protein kinase B-raf (Homo sapiens) (UniProt P15056); test: Inhibition of BRAF (unknown origin) assessed as residual activity at 1000 nM by KINOMEscan analysis relative to control
Chain of Serine/threonine-protein kinase B-raf (Homo sapiens) (P15056 whole entry): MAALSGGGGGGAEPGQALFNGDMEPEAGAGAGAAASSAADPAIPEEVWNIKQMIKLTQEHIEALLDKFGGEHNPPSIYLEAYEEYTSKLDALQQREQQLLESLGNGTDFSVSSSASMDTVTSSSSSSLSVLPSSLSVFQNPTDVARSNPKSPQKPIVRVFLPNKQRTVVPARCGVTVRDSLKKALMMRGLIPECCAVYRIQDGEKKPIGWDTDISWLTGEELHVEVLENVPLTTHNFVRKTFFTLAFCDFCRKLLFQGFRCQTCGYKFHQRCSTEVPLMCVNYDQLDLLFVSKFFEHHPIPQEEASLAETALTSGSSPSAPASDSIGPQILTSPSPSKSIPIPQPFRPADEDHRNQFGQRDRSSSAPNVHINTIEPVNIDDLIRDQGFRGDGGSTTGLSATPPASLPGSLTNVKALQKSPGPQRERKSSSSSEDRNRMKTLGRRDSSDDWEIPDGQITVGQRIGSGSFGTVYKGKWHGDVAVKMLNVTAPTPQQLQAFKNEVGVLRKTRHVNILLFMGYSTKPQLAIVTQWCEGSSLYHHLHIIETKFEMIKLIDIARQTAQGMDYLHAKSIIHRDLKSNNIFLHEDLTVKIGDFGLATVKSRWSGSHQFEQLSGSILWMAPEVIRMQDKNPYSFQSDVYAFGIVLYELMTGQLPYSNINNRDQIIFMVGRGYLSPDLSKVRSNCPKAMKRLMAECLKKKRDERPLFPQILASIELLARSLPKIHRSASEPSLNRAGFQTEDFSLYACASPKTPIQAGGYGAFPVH

[3] = target: Activin receptor type-2B (Homo sapiens) (UniProt Q13705); test: Inhibition of ACVR2B (unknown origin) assessed as residual activity at 1000 nM by KINOMEscan analysis relative to control
Chain of Activin receptor type-2B (Homo sapiens) (Q13705 whole entry): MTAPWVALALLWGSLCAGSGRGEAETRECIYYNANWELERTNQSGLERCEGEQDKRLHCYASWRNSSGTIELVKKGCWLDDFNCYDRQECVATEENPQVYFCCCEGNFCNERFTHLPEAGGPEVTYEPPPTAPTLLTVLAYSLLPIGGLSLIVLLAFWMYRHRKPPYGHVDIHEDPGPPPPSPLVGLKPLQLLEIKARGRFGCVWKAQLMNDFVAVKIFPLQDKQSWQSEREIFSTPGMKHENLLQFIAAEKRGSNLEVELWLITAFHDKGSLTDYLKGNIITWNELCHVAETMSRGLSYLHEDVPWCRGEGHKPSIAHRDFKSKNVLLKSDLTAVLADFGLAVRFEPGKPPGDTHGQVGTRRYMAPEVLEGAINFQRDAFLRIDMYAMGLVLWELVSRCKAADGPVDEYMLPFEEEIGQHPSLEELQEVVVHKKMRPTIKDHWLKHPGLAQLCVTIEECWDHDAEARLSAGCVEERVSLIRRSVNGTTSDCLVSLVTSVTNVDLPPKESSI

[4] = target: Tyrosine-protein kinase Tec (Homo sapiens) (UniProt P42680); test: Inhibition of TEC (unknown origin) assessed as residual activity at 1000 nM by KINOMEscan analysis relative to control
Chain of Tyrosine-protein kinase Tec (Homo sapiens) (P42680 whole entry, looked up): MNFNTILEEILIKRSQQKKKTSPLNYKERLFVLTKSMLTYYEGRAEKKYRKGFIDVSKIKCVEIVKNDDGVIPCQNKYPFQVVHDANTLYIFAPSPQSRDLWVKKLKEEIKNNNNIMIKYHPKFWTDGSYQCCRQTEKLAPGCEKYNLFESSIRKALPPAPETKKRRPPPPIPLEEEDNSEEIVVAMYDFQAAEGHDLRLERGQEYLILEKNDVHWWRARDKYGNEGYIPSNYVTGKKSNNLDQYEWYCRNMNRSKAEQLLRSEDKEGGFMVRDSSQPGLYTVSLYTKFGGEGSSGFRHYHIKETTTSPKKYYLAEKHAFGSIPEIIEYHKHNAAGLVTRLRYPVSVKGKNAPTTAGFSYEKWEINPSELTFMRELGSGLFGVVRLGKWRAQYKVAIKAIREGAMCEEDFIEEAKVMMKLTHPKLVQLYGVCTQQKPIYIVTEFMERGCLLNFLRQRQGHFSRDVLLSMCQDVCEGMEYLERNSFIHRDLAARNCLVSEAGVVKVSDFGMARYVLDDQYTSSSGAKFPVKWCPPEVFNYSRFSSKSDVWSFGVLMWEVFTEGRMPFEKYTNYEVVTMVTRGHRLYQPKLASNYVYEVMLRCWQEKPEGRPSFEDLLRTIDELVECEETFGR

[5] = target: T2, Atypical kinase COQ8B, mitochondrial (Homo sapiens) (UniProt Q96D53); test: Inhibition of ADCK4 (unknown origin) assessed as residual activity at 1000 nM by KINOMEscan analysis relative to control
T2 sequence (whole entry): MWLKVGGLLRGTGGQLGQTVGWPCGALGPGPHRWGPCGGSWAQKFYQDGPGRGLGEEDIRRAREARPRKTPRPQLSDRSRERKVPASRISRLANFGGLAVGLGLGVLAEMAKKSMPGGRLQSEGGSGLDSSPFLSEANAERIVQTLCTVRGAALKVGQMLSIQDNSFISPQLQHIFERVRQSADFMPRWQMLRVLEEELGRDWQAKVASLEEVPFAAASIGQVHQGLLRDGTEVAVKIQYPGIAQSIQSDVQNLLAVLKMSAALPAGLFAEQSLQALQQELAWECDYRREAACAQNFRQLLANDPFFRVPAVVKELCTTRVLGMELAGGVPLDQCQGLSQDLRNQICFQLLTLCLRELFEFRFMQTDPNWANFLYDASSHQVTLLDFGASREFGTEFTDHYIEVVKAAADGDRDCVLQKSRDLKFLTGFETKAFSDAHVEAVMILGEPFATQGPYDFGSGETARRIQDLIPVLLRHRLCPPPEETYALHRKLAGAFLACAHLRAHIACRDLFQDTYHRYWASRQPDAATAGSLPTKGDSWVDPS

[6] = target: Cyclin-dependent kinase 2 (Homo sapiens) (UniProt P24941); test: Inhibition of CDK2 (unknown origin) assessed as residual activity at 1000 nM by KINOMEscan analysis relative to control
[7] = target: T3, Mitogen-activated protein kinase kinase kinase 15 (Homo sapiens) (UniProt Q6ZN16); test: Inhibition of MAP3K15 (unknown origin) assessed as residual activity at 1000 nM by KINOMEscan analysis relative to control
T3 sequence (whole entry): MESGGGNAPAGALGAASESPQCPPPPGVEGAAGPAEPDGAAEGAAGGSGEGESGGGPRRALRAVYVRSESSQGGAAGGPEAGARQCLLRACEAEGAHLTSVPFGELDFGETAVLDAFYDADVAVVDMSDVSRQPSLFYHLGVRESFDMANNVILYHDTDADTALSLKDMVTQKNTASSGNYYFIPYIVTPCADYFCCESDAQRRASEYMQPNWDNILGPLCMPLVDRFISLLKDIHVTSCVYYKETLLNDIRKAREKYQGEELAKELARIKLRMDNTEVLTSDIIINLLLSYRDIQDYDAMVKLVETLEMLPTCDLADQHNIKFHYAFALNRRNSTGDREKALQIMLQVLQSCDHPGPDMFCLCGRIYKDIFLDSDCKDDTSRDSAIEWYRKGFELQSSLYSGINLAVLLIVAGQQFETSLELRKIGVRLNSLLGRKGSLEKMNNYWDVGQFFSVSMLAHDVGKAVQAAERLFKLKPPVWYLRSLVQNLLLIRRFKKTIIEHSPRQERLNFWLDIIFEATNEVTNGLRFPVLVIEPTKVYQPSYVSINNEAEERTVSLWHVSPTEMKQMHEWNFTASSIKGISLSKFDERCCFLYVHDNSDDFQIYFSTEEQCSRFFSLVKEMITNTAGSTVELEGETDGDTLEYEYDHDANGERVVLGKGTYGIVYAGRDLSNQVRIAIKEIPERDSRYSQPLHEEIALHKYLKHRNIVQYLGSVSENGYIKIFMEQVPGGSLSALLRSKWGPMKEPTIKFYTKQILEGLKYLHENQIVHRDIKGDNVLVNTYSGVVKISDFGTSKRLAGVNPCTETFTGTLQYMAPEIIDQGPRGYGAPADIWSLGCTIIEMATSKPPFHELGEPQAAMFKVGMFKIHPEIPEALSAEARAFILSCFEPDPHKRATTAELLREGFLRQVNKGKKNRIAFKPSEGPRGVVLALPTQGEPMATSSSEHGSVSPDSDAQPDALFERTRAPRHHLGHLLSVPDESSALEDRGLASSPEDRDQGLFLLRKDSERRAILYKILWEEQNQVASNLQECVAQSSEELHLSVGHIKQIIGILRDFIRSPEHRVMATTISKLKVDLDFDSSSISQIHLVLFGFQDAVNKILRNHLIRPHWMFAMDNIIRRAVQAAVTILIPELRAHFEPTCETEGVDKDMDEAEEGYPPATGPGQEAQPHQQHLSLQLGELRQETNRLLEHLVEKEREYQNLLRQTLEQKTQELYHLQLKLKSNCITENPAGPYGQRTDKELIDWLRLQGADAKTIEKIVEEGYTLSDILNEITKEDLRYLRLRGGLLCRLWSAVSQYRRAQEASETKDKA

| Compound | Activity [1] [%] | Activity [2] [%] | Activity [3] [%] | Activity [4] [%] | Activity [5] [%] | Activity [6] [%] | Activity [7] [%] |
| --- | --- | --- | --- | --- | --- | --- | --- |
| COc1cc2nc(C)nc(N[C@H](C)c3cccc(-c4cn[nH]c4)c3)c2cc1OC | 67 | 75 | 91 | 85 | 89 | 100 | 63 |
| COc1cc2ncnc(N[C@H](C)c3cccc4ccccc34)c2cc1OC | 100 | 91 | 100 | 98 | 100 | 100 | 80 |
